# Reference: patent US6110965A, “Ketolides from the class of 15-membered lactams” (PLIVA, farmaceutska, kemijska, prehrambena i kozmeticka …, priority 1998, dated 2000)
# Where two headings read alike, the source gives them in different places.
# Legend:
# [1] = tested on: Listeria monocytogenes ATCC 7644; experiment: Antibacterial in vitro action (MIC), microdilution process according to NCCLS; assay type: cell-based
# [2] = tested on: Staphylococcus aureus ATCC 25923; experiment: as above; assay type: cell-based
# [3] = tested on: Staphylococcus epidermidis ATCC 12228; experiment: as above; assay type: cell-based
# [4] = tested on: Enterococcus faecalis ATCC 35550; experiment: as above; assay type: cell-based
# [5] = tested on: Streptococcus pneumoniae ATCC 6305; experiment: as above; assay type: cell-based
# [6] = tested on: Streptococcus pyogenes ATCC 19615; experiment: as above; assay type: cell-based
# [7] = tested on: Clostridium perfringens ATCC 13124; experiment: microbe, parasite or virus in culture; assay type: cell-based; settings: ATCC13124, read-out: Antibacterial in vitro action (MIC, mg/l)
# [8] = tested on: Moraxella catarrhalis ATCC 25238; experiment: Antibacterial in vitro action (MIC), microdilution process according to NCCLS; assay type: cell-based
# [9] = tested on: Campylobacter fetus ATCC 19438; experiment: as above; assay type: cell-based
# [10] = tested on: Campylobacter jejuni ATCC 33291; experiment: as above; assay type: cell-based
# [11] = tested on: Citroobacter freundii ATCC 8090; experiment: as above; assay type: cell-based; settings: read-out: Antibacterial in vitro action (MIC, mg/l)
# [12] = tested on: Escherichia coli ATCC 25922; experiment: as above; assay type: cell-based; settings: ATCC25922, read-out: Antibacterial in vitro action (MIC, mg/l)
# [13] = tested on: Proteus mirabilis ATCC 12453; experiment: as above; assay type: cell-based
# [14] = tested on: Proteus mirabilis ATCC 43071; experiment: as above; assay type: cell-based
# [15] = tested on: Salmonella choleraesuis ATCC 13076; experiment: as above; assay type: cell-based; settings: Salmonella enterica, read-out: Antibacterial in vitro action (MIC, mg/l)
# [16] = tested on: Shigella flexneri ATCC 12022; experiment: as above; assay type: cell-based; settings: ATCC12022, read-out: Antibacterial in vitro action (MIC, mg/l)
# Description: Antibacterial in vitro action of the new compounds of the general formula (I), wherein A, B, R^1, R^2 and R^3 have the above-mentioned meanings, and of their pharmaceutically acceptable addition salts with inorganic or organic acids was determined on a series of standard test microorganisms and clinical isolates by microdilution process according to the protocol NCCLS (The National Commitee for Clinical Laboratory Standards, Document M7-A2, Vol. 10, No. 8, 1990 and Document M11-A2, Vol. 10, 15,1991). The control of the laboratory process was performed by means of control strain Staphyloccocus aureus ATTC 29213 (The American Type Culture Collection) according to protocol NCCLS (Document M7-A2, Table 3, M100-S4).
# The antibacterial in vitro action on a series of standard test microorganisms for 6-O-methyl-8a-aza-8a-homoerythromycin A from Example 3 in comparison with azithromycin, erythromycin and clarithromycin is represented in Table 1.
# [17] = tested on: Yersinia enterocolitica ATCC 9610; experiment: as above; assay type: cell-based
# [18] = tested on: Haemophilus influenzae ATCC 49247; experiment: as above; assay type: cell-based
# [19] = tested on: Haemophilus influenzae ATCC 49766; experiment: as above; assay type: cell-based
# [20] = tested on: Pseudomonas aeruginosa ATCC 25619; experiment: as above; assay type: cell-based
# [21] = in vivo; cited from earlier work
# [22] = tested on: human phagocyte cells; settings: cited from earlier work
# [23] = tested on: gram-negative bacteria; settings: cited from earlier work
# [24] = compared to erythromycin A; cited from earlier work
# [25] = tested on: gram-positive bacterial strains; settings: compared to erythromycin A; cited from earlier work
# [26] = oral preparations; cited from earlier work
# [27] = Listeria monocytogenes, ATCC7644, read-out: Antibacterial in vitro action (MIC, mg/l)
# [28] = ATCC25923, Staphylococcus aureus ATCC 25923, read-out: Antibacterial in vitro action (MIC, mg/l)
# [29] = ATCC12228, Staphylococcus epidermidis ATCC 12228, read-out: Antibacterial in vitro action (MIC, mg/l)
# [30] = ATCC35550, Enterococcus faecalis ATCC 35550, read-out: Antibacterial in vitro action (MIC, mg/l)
# [31] = Streptococcus pneumoniae, ATCC6305, read-out: Antibacterial in vitro action (MIC, mg/l)
# [32] = Streptococcus pyogenes, ATCC19615, read-out: Antibacterial in vitro action (MIC, mg/l)
# [33] = Moraxella catarrhalis, ATCC25238, read-out: Antibacterial in vitro action (MIC, mg/l)
# [34] = Campylobacter fetus, ATCC19438, read-out: Antibacterial in vitro action (MIC, mg/l)
# [35] = Campylobacter jejuni, ATCC33291, read-out: Antibacterial in vitro action (MIC, mg/l)
# [36] = Citroobacter freundii ATCC 8090
# [37] = ATCC12453, Proteus mirabilis ATCC 12453, read-out: Antibacterial in vitro action (MIC, mg/l)
# [38] = ATCC43071, Proteus mirabilis ATCC 43071, read-out: Antibacterial in vitro action (MIC, mg/l)
# [39] = Salmonella choleraesuis ATCC 13076
# [40] = ATCC9610, Yersinia enterocolitica ATCC 9610, read-out: Antibacterial in vitro action (MIC, mg/l)
# [41] = ATCC49247, Haemophilus influenzae ATCC 49247, read-out: Antibacterial in vitro action (MIC, mg/l)
# [42] = ATCC49766, Haemophilus influenzae ATCC 49766, read-out: Antibacterial in vitro action (MIC, mg/l)
# [43] = ATCC25619, Pseudomonas aeruginosa ATCC 25619, read-out: Antibacterial in vitro action (MIC, mg/l)
Compound,"MIC [1, 27] [mg/L]","MIC [2, 28] [mg/L]","MIC [3, 29] [mg/L]","MIC [4, 30] [mg/L]","MIC [5, 31] [mg/L]","MIC [6, 32] [mg/L]",MIC [7] [mg/L],"MIC [8, 33] [mg/L]","MIC [9, 34] [mg/L]","MIC [10, 35] [mg/L]","MIC [11, 36] [mg/L]",MIC [12] [mg/L],"MIC [13, 37] [mg/L]","MIC [14, 38] [mg/L]","MIC [15, 39] [mg/L]",MIC [16] [mg/L],"MIC [17, 40] [mg/L]","MIC [18, 41] [mg/L]","MIC [19, 42] [mg/L]","MIC [20, 43] [mg/L]",further results
"CC[C@H]1OC(=O)[C@H](C)[C@@H](O[C@H]2C[C@@](C)(OC)[C@@H](O)[C@H](C)O2)[C@H](C)[C@@H](O[C@@H]2O[C@H](C)C[C@H](N(C)C)[C@H]2O)[C@](C)(O)C[C@@H](C)CN(C)[C@H](C)[C@@H](O)[C@]1(C)O [Az, 9-deoxo-9a-methyl-9a-aza-9a-homoerythromycin A]",< 0.125,0.5,1,0.5,< 0.125,< 0.125,0.125,< 0.125,< 0.125,< 0.125,4,2,64,64,2,1,1,0.5,1,64,biological half-time [21]: long biological half-time; penetration and accumulation within human phagocyte cells [22]: able to penetrate and to accumulate within human phagocyte cells; antimicrobial spectrum [23]: broad antimicrobial spectrum including gram-negative bacteria
"CC[C@H]1OC(=O)[C@H](C)[C@@H](O[C@H]2C[C@@](C)(OC)[C@@H](O)[C@H](C)O2)[C@H](C)[C@@H](O[C@@H]2O[C@H](C)C[C@H](N(C)C)[C@H]2O)[C@](C)(OC)C[C@@H](C)C(=O)[C@H](C)[C@@H](O)[C@]1(C)O [Cl, 6-O-methyl-erythromycin A]",< 0.125,0.5,0.25,0.25,< 0.125,< 0.125,0.125,< 0.125,< 0.125,< 0.125,64,32,128,> 128,32,32,16,4,8,> 128,stability in acidic medium [24]: considerably more stable in acidic medium; in vitro activity against gram-positive bacterial strains [25]: increased in vitro activity against gram-positive bacterial strains
"CC[C@H]1OC(=O)[C@H](C)[C@@H](O[C@H]2C[C@@](C)(OC)[C@@H](O)[C@H](C)O2)[C@H](C)[C@@H](O[C@@H]2O[C@H](C)C[C@H](N(C)C)[C@H]2O)[C@](C)(O)C[C@@H](C)C(=O)[C@H](C)[C@@H](O)[C@]1(C)O [Er, erythromycin A]",< 0.125,,,,< 0.125,< 0.125,0.5,< 0.125,< 0.125,< 0.125,,32,,,,32,,,,,"MIC ([2]; Staphylococcus aureus, ATCC25923, read-out: Antibacterial in vitro action (MIC, mg/l)): 0.25 mg/L; MIC ([3]; Staphylococcus epidermidis, ATCC12228, read-out: Antibacterial in vitro action (MIC, mg/l)): 0.25 mg/L; MIC ([4]; Enterococcus faecalis, ATCC35550, read-out: Antibacterial in vitro action (MIC, mg/l)): 1 mg/L; MIC [11]: 64 mg/L; MIC ([13]; Proteus mirabilis, ATCC12453, read-out: Antibacterial in vitro action (MIC, mg/l)): > 128 mg/L; MIC ([14]; Proteus mirabilis, ATCC43071, read-out: Antibacterial in vitro action (MIC, mg/l)): > 128 mg/L; MIC [15]: 64 mg/L; MIC ([17]; Yersinia enterocolitica, ATCC9610, read-out: Antibacterial in vitro action (MIC, mg/l)): 16 mg/L; MIC ([18]; Haemophilus influenzae, ATCC49247, read-out: Antibacterial in vitro action (MIC, mg/l)): 2 mg/L; MIC ([19]; Haemophilus influenzae, ATCC49766, read-out: Antibacterial in vitro action (MIC, mg/l)): 4 mg/L; MIC ([20]; Pseudomonas aeruginosa, ATCC25619, read-out: Antibacterial in vitro action (MIC, mg/l)): > 128 mg/L; gastric intolerance [26]: gastric intolerance in many patients"
"CC[C@H]1OC(=O)[C@H](C)[C@@H](O[C@H]2C[C@@](C)(OC)[C@@H](O)[C@H](C)O2)[C@H](C)[C@@H](O[C@@H]2O[C@H](C)C[C@H](N(C)C)[C@H]2O)[C@](C)(OC)C[C@@H](C)NC(=O)[C@H](C)[C@@H](O)[C@]1(C)O [Example 3, 6-O-methyl-8a-aza-8a-homoerythromycin A]",,0.5,0.5,1,,,0.25,,,,16,8,32,32,8,4,4,1,1,32,"MIC ([1]; ATCC7644, Listeria monocytogenes ATCC 7644, read-out: Antibacterial in vitro action (MIC, mg/l)): < 0.125 mg/L; MIC ([5]; ATCC6305, Streptococcus pneumoniae ATCC 6305, read-out: Antibacterial in vitro action (MIC, mg/l)): < 0.125 mg/L; MIC ([6]; ATCC19615, Streptococcus pyogenes ATCC 19615, read-out: Antibacterial in vitro action (MIC, mg/l)): < 0.125 mg/L; MIC ([8]; ATCC25238, Moraxella catarrhalis ATCC 25238, read-out: Antibacterial in vitro action (MIC, mg/l)): < 0.125 mg/L; MIC ([9]; ATCC19438, Campylobacter fetus ATCC 19438, read-out: Antibacterial in vitro action (MIC, mg/l)): < 0.125 mg/L; MIC ([10]; ATCC33291, Campylobacter jejuni ATCC 33291, read-out: Antibacterial in vitro action (MIC, mg/l)): < 0.125 mg/L"
